Assay results from patent US20250243196A1, “CITRON KINASE INHIBITORS” (The Cleveland Clinic Foundation, priority 2021, published 2025).

Biological target: Citron kinase (Homo sapiens (Human), UniProt O14578)
Experiment: Radiometric citron kinase assay (Eurofins Cat #16-040KP)
Assay type: biochemical
Conditions: mean of at least two independent assays; read-out: Radiometric CitK IC50
Outline: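 Radiometric KinaseProfiler format: test compound incubated with kinase, substrate, cofactors and radiolabelled ATP; unreacted ATP washed away and radiolabelled phosphate incorporated into substrate measured. IC50 derived from inhibition of phosphorylation. Values are means of at least two independent assays.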

Citron kinase, sequence (O14578 whole entry): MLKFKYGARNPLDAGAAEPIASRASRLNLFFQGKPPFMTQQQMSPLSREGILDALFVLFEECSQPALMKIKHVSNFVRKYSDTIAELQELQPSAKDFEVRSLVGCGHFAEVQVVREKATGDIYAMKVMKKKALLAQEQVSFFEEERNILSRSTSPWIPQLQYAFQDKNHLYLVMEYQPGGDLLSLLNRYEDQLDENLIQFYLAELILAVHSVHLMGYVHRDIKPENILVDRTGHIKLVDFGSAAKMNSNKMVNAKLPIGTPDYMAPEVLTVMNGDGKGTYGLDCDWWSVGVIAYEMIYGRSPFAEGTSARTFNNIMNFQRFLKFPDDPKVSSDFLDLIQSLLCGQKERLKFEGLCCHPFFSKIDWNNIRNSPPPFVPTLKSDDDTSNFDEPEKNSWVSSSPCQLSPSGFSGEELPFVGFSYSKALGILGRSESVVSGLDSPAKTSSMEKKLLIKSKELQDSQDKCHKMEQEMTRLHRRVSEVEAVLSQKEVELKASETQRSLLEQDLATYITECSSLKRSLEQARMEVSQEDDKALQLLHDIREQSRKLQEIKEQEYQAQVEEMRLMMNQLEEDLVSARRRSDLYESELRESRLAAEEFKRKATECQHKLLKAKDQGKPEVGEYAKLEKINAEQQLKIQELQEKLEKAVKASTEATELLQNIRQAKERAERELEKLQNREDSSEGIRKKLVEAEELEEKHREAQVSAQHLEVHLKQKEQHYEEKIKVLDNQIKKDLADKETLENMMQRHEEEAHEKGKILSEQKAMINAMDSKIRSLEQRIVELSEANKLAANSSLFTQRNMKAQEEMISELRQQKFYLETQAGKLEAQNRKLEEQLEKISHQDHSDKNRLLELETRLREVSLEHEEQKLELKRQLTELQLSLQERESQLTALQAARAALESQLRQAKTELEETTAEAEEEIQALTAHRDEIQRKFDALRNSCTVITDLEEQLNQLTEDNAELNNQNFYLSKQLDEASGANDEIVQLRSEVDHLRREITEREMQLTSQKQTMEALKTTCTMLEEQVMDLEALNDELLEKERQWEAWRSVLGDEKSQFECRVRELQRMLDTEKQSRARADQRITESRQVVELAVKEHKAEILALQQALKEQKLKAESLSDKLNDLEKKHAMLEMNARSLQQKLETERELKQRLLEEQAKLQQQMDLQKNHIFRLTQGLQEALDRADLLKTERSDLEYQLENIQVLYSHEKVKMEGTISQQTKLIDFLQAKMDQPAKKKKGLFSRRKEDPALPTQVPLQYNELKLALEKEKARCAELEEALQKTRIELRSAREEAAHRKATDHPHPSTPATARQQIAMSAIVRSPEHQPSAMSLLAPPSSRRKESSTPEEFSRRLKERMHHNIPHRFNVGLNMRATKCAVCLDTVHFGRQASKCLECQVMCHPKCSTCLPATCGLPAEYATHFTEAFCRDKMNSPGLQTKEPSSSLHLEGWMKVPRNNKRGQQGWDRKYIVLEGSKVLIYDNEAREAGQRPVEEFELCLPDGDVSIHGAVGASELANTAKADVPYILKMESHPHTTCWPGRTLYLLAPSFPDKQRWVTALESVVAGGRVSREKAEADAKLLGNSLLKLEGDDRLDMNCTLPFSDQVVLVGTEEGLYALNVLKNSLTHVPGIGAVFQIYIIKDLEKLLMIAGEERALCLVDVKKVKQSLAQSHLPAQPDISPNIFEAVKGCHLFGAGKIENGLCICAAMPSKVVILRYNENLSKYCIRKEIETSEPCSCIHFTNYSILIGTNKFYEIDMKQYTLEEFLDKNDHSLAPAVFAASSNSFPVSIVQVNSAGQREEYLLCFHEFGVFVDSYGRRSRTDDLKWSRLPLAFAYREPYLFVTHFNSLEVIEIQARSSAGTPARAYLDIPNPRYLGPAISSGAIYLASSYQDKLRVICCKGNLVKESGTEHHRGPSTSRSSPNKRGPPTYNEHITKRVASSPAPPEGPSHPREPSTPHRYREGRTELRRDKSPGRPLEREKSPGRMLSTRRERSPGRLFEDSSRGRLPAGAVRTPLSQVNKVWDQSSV

First: COc1nc(NC(=O)[C@H](N)CC(C)(C)C)ccc1-c1ccnc2[nH]c(C)cc12 [Compound F-153, (2R)-2-Amino-N-[6-methoxy-5-(2-methyl-1H-pyrrolo[2,3-b]pyridin-4-yl)-2-pyridyl]-4,4-dimethyl-pentanamide]
Second: COc1nc(NC(=O)[C@H](N)CC(C)(C)C)ccc1-c1ccnc2[nH]c(C(F)(F)F)cc12 [Compound F-154, (2R)-2-Amino-N-[6-methoxy-5-[2-(trifluoromethyl)-1H-pyrrolo[2,3-b]pyridin-4-yl]-2-pyridyl]-4,4-dimethyl-pentanamide]
The IC50 of the first is 1.7-fold lower: 0.035 µM for the first, 0.059 µM for the second.

Going from COc1nc(NC(=O)[C@H](N)CC(C)C)ccc1-c1ccnc2[nH]c(C(F)(F)F)cc12 [Compound F-155, (2R)-2-Amino-N-[6-methoxy-5-[2-(trifluoromethyl)-1H-pyrrolo[2,3-b]pyridin-4-yl]-2-pyridyl]-4-methyl-pentanamide] to COc1cc(NC(=O)[C@H](N)CC(C)(C)C)ccc1-c1ccnc2[nH]c(C)cc12 [Compound F-167, (2R)-2-Amino-N-[3-methoxy-4-(2-methyl-1H-pyrrolo[2,3-b]pyridin-4-yl)phenyl]-4,4-dimethyl-pentanamide], the IC50 falls from 0.113 µM to 0.05 µM (2.3-fold).

First: Cc1cc2c(-c3ccc(NC(=O)[C@H](N)CC(C)(C)C)c(F)c3C)ccnc2[nH]1 [Compound F-156, (2R)-2-Amino-N-[2-fluoro-3-methyl-4-(2-methyl-1H-pyrrolo[2,3-b]pyridin-4-yl)phenyl]-4,4-dimethyl-pentanamide]
Second: Cc1cc2c(-c3ccc(NC(=O)[C@@H](N)CC(C)(C)C)cc3C)ccnc2[nH]1 [Compound F-158, (2S)-2-Amino-4,4-dimethyl-N-[3-methyl-4-(2-methyl-1H-pyrrolo[2,3-b]pyridin-4-yl)phenyl]pentanamide]
The IC50 of the first is 13-fold lower: 0.01 µM for the first, 0.126 µM for the second. The first is the more potent here.

Going from COc1cccc(C[C@@H](N)C(=O)Nc2ccc(-c3ccnc4[nH]c(C)cc34)c(C)c2)c1 [Compound F-157, (2R)-2-Amino-3-(3-methoxyphenyl)-N-[3-methyl-4-(2-methyl-1H-pyrrolo[2,3-b]pyridin-4-yl)phenyl]propenamide] to Cc1cc2c(-c3ccc(NC(=O)[C@@H](N)C(C)(C)O)cc3C)ccnc2[nH]1 [Compound F-159, (2S)-2-Amino-3-hydroxy-3-methyl-N-[3-methyl-4-(2-methyl-1H-pyrrolo[2,3-b]pyridin-4-yl)phenyl]butanamide], the IC50 rises from 0.519 µM to 0.852 µM (1.6-fold).

Compared with Cc1cc2c(-c3ccc(NC(=O)C(N)C(O)C(C)(C)C)cc3C)ccnc2[nH]1 (stereo not shown) [Compound F-160, 2-Amino-3-hydroxy-4,4-dimethyl-N-[3-methyl-4-(2-methyl-1H-pyrrolo[2,3-b]pyridin-4-yl)phenyl]pentanamide], COc1cc(NC(=O)[C@H](N)C(C)(C)O)ccc1-c1ccnc2[nH]c(C)cc12 [Compound F-168, (2R)-2-Amino-3-hydroxy-N-[3-methoxy-4-(2-methyl-1H-pyrrolo[2,3-b]pyridin-4-yl)phenyl]-3-methyl-butanamide] is 53-fold higher in IC50: 0.029 µM for the first, 1.53 µM for the second.

COc1cc(NC(=O)[C@H](N)CC(C)(C)C)ccc1-c1ccnc2[nH]ccc12 [Compound F-166, (2R)-2-Amino-N-[3-methoxy-4-(1H-pyrrolo[2,3-b]pyridin-4-yl)phenyl]-4,4-dimethyl-Pentanamide] and Cc1cc2c(-c3ccc(NC(=O)[C@H](N)CC(C)(C)C)cc3OC(F)F)ccnc2[nH]1 [Compound F-169, (2R)-2-Amino-N-[3-(difluoromethoxy)-4-(2-methyl-1H-pyrrolo[2,3-b]pyridin-4-yl)phenyl]-4,4-dimethyl-pentanamide] are within 1.5-fold of each other in IC50: 0.037 µM for the first, 0.053 µM for the second.

Molecule Cc1cc2c(-c3ccc(NC(=O)[C@H](N)C(C)(C)O)cc3OC(F)F)ccnc2[nH]1 [Compound F-170, (2R)-2-Amino-N-[3-(difluoromethoxy)-4-(2-methyl-1H-pyrrolo[2,3-b]pyridin-4-yl)phenyl]-3-hydroxy-3-methyl-butanamide] has an IC50 of 0.315 µM.
